Measurements as given in US12150777B2, “Treatment of depression” (The Board of Trustees of the Leland Stanford Junior …, priority 2018, dated 2024).
Where two headings read alike, the source gives them in different places.

Legend:
[1] = for endpoint symptom difference Cohen's d / remission NNT: below median iI-cI activation
Text: fMRI task and acquisition parameters: The emotional conflict task is a well-characterized paradigm^17,18, that induces emotional conflict through pairing fearful and happy faces with overlaid congruent or incongruent emotion words (participants identify facial expression using a keypad).
fMRI preprocessing and first-level modeling: For the emotional conflict task, the contrasts of interest were incongruent versus congruent trials (conflict) and post-incongruent incongruent trials versus post-congruent incongruent trials (an established measure of conflict regulation)^11,13,17,18.
Statistical analyses: All moderation analyses were conducted under an intention-to-treat framework, incorporating all randomized patients after removing those with excessive head motion or low task accuracy. As such, we employed linear mixed models both for the voxelwise neuroimaging data, as well as follow-up analyses on extracted brain signals, while fully controlling for any potential differences due to site of acquisition. Whole-brain voxelwise correction for multiple comparisons was performed at p<0.05 based on the false discovery rate.
Emotional conflict task: This well-characterized paradigm assesses both emotional conflict and emotional conflict regulation^3,4. Each trial involved presentation of an emotional face with either a fearful or happy expression, drawn from the set of Ekman & Friesen^5, with an overlaid emotion word (“FEAR” or “HAPPY”). Participants were instructed to identify the facial emotion with a key press, while trying to ignore the emotion word. The task consisted of 148 trials, with stimuli presented for 1000 milliseconds (ms) in a fast event-related design. Interstimulus intervals were 3000-5000 ms in a pseudo-randomized order counterbalanced for facial expression, gender, word, and response button. Stimuli were either congruent (e.g. fearful face with “FEAR”) or incongruent (e.g. fearful face with “HAPPY”), and stimuli were furthermore balanced to achieve an equal fraction of current and prior trial congruency, while ensuring no direct stimulus repetitions. Prior to performance of the task during neuroimaging, all participants underwent a practice version to ensure task proficiency was reached (minimum 80% accuracy) and the task instructions were understood. The neuroimaging task lasted 13 minutes and 14 seconds.
We constrained analyses to a search space defined by a whole-brain mask constructed from: a) a 30% probabilistic voxelwise threshold derived from spatially normalized, segmented binary gray matter images from an independent sample of healthy comparison participants^9,10; and b) a conjunction map of adequate signal coverage across study scanners constructed by concatenating the binarized individual-level average map of all task experimental conditions within participants acquired at each scanner, thresholding at a minimum of 50% coverage within each scanner sample, and then conjoining these maps across all scanners. Thus, the final search space was a function of both adequate signal coverage across all study scanners as well as a probabilistic assignment to the brain's gray matter. At each voxel within this search space, the moderating effect of baseline brain activation (mean-centered) was examined using a longitudinal linear mixed model implemented in the nlme R package.^14 Modeled effects included a random and fixed intercept, fixed effects of time, time×treatment arm, 4 mean-centered, dummy-coded scanner variables corresponding to: a) Columbia University scanner 1 vs. UT Southwestern scanner; b) Columbia University scanner 2 vs. UT Southwestern scanner; c) Massachusetts General Hospital scanner vs. UT Southwestern scanner; and d) University of Michigan scanner vs. UT Southwestern scanner, treatment arm×time×brain activation, and all model variables in interaction with each of the 4 site variables.

[2] = EMBARC randomized trial, sertraline versus placebo, HAMD17 outcome; assay type: in vivo, human; details: all patients
Text: Assessments and treatment protocol: The primary clinical outcome was total scores on the Hamilton Rating Scale for Depression 17-item (HAMD17)^24,25, administered at each study visit (baseline, week 1, week 2, week 3, week 4, week 6, and week 8).
Key eligibility for the study included being 18-65 years old, having major depression as a primary diagnosis by the Structured Clinical Interview for DSM-IV Axis I Disorders^1, at least moderate depression severity with a score≥14 on the Quick Inventory of Depressive Symptomatology-Self Report (QIDS-SR) at screening and randomization, a major depressive episode beginning before age 30, either a chronic recurrent episode (duration≥2 years) or recurrent MDD (at least 2 lifetime episodes), and no antidepressant failure during the current episode. […] In addition, 40 healthy individuals who were medically and psychiatrically healthy, were recruited across the four sites, and assessed in a similar manner as the patients. […]

[3] = Moderation of outcome by left amygdala PPI task-related connectivity; assay type: in vivo, human
Experimental: Context-dependent connectivity analyses were conducted using the generalized PPI toolbox^1. A “seed” region was defined volumetrically using an anatomical region of interest mask of the left and right amygdala. Each amygdala mask was then deformed from Montereal Neurological Institute standard space into the participant's native anatomical space using the inverse warp parameter determined during spatial normalization of the preprocessing stage. […] The interaction of the time series of behavioral parameters of interest, i.e. the task conditions utilized in the first-level activation analysis, with the deconcolved “neuronal” time series were calculated for each task condition of interest, thus producing a fully specified statistical model modeling the interaction of each task condition with the observed BOLD time series (a psychophysiological interaction). […] The first-level beta weights for the contrasts of conditions of interest were then calculated on the individual level, and individual-level generalized PPI beta maps were then carried to a second level linear mixed model analysis conducted in R using the fmri^2 and nlme^3 packages to assess voxelwise task-dependent connectivity moderation effects (as in the activation analyses).

## CN[C@H]1CC[C@@H](c2ccc(Cl)c(Cl)c2)c2ccccc21 [sertraline]
[1]; anterior insula
  endpoint symptom difference Cohen's d: 0.53
  remission NNT: 6.3
[1]; dorsal anterior cingulate
  endpoint symptom difference Cohen's d: 0.79
  remission NNT: 3
[1]; frontopolar cortex
  endpoint symptom difference Cohen's d: 0.85
  remission NNT: 2.9
[1]; patients in bottom half of emotion-regulation capacity
  benefit of sertraline over placebo: no benefit
[1]; patients in bottom quartile of emotional conflict regulatory ability
  benefit of sertraline over placebo: no benefit
[1]; patients in top half of emotion-regulation capacity
  number needed to treat: < 5
[1]; patients in top quartile of emotional conflict regulatory ability
  number needed to treat versus placebo: < 4
[2]; HAMD17, linear mixed model, 8 weeks
  endpoint symptom reduction with sertraline versus placebo, Cohen's d: 0.24
[2]; sertraline versus placebo
  remission number needed to treat (NNT): 20.1
[3]; left amygdala PPI connectivity to dorsal anterior cingulate above median
  symptom change with sertraline versus placebo: failed to show any difference
[3]; left amygdala PPI connectivity to dorsal anterior cingulate below median
  symptom change with sertraline compared to placebo: steep decline in symptoms
